Publication PMC7745444 (ACS Omega, 2020)

Assays:
β-glucosidase = assay: p-nitrophenyl glucopyranoside hydrolysis, absorbance at […] nm; type: biochemical, Prunus dulcis
β-galactosidase = β-galactosidase (Escherichia coli, UniProt P00722); assay: p-nitrophenyl galactopyranoside hydrolysis, absorbance at […] nm; type: biochemical
Chain of β-galactosidase (P00722 2-1024): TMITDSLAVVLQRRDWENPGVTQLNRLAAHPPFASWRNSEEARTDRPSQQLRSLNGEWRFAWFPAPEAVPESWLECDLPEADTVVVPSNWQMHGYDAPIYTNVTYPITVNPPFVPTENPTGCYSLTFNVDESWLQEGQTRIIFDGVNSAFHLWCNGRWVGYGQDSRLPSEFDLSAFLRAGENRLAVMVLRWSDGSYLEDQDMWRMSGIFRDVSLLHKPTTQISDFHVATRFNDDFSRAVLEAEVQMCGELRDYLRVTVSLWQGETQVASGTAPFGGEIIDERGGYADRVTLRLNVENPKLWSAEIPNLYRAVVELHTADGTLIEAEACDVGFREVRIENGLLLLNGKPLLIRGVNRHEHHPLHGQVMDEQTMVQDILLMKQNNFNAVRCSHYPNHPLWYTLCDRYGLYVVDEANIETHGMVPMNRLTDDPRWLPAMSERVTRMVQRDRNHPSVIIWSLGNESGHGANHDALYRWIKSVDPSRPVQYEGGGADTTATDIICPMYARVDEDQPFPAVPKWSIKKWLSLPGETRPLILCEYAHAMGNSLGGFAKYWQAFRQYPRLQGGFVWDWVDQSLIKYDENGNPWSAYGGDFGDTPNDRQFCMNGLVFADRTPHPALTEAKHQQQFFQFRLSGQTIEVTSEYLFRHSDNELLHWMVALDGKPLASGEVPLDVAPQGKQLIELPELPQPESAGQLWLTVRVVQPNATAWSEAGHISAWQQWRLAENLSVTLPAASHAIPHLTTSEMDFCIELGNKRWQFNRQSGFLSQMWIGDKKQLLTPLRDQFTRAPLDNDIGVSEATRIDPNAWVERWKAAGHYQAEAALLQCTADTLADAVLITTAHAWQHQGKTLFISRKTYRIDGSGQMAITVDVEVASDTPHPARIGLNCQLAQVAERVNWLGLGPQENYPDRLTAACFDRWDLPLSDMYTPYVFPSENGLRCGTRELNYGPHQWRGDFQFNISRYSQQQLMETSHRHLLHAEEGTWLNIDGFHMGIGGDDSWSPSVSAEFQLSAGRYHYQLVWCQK

`CN1C[C@H]2[C@H](CO)[C@H]2[C@H](O)[C@H]1CO` [compound 9, (1S,4R,5S,6S,7S)-4,7-bis(Hydroxymethyl)-3-methyl-3-azabicyclo[4.1.0]heptan-5-ol] showed a Ki (β-glucosidase) of 4.43 mM.

Work on `O=C(O)[C@H]1[C@@H]2CN[C@H](CO)[C@@H](O)[C@@H]21` [8a, (1R,4R,5S,6S,7S)-5-Hydroxy-4-(hydroxymethyl)-3-azabicyclo[4.1.0]heptane-7-carboxylic Acid] yielded a Ki (β-galactosidase) of 1.18 mM.
